Results as given in the supplement of paper PMC9938120.

How the values were obtained:
Test in all cases: drug sensitivity score (DSS3, normalised partial AUC of % inhibition dose-response) (DSS (score)); higher = more sensitive (stronger inhibition of viability); extreme values may be limits of the assay
[1] = tested on: FMOC22 (patient-derived mucinous ovarian cancer cells); conditions: 72 h; library: FO5A; assay format: 2D, 384-well, CellTiter-Glo
In short: (§1)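 The drug sensitivity score is calculated as a partial area under the percent-inhibition dose-response curve, divided by the log of the upper asymptote; higher scores mean more sensitive. For this score, early-passage (under 10) patient-derived ovarian cancer cells were exposed on 384-well flat clear-bottom plates to compounds at five concentrations across a 10,000-fold range for 72 h at 37 °C, 5% CO2. Viability was read with CellTiter-Glo and processed in Breeze.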

[2] = tested on: FMOC02_2 (patient-derived low-grade serous ovarian cancer cells); conditions: 72 h; library: FO5A; assay format: 2D, 384-well, CellTiter-Glo
In short: as §1

[3] = tested on: FMOC11 (patient-derived high-grade serous ovarian cancer cells); conditions: 72 h; library: FO5A; assay format: 2D, 384-well, CellTiter-Glo
In short: as §1

[4] = tested on: FMOC03 (patient-derived mucinous ovarian cancer cells); conditions: 72 h; library: FO5A; assay format: 2D, 384-well, CellTiter-Glo
In short: as §1

[5] = tested on: FMOC27 (patient-derived low-grade serous ovarian cancer cells); conditions: 72 h; library: FO5A; assay format: 2D, 384-well, CellTiter-Glo
In short: as §1

[6] = tested on: FMOC04 (patient-derived high-grade serous ovarian cancer cells); conditions: 72 h; library: FO5A; assay format: 2D, 384-well, CellTiter-Glo
In short: as §1

[7] = tested on: FMOC24 (patient-derived high-grade serous ovarian cancer cells); conditions: 72 h; library: FO5A; assay format: 2D, 384-well, CellTiter-Glo
In short: as §1

[8] = tested on: FMOC28 (patient-derived low-grade serous ovarian cancer cells); conditions: 72 h; library: FO5A; assay format: 2D, 384-well, CellTiter-Glo
In short: as §1

[9] = tested on: FMOC25_2 (patient-derived low-grade serous ovarian cancer cells); conditions: 72 h; library: FO5A; assay format: 2D, 384-well, CellTiter-Glo
In short: as §1

[10] = tested on: FMOC17 (patient-derived low-grade serous ovarian cancer cells); conditions: 72 h; library: FO5A; assay format: 2D, 384-well, CellTiter-Glo
In short: as §1

[11] = tested on: FMOC06 (patient-derived mucinous ovarian cancer cells); conditions: 72 h; library: FO5A; assay format: 2D, 384-well, CellTiter-Glo
In short: as §1

[12] = tested on: FMOC02_3 (patient-derived low-grade serous ovarian cancer cells); conditions: 72 h; library: FO5A; assay format: 2D, 384-well, CellTiter-Glo
In short: as §1

[13] = tested on: FMOC02_1 (patient-derived low-grade serous ovarian cancer cells); conditions: 72 h; library: FO5A; assay format: 2D, 384-well, CellTiter-Glo
In short: as §1

[14] = tested on: FMOC14 (patient-derived high-grade serous ovarian cancer cells); conditions: 72 h; library: FO5A; assay format: 2D, 384-well, CellTiter-Glo
In short: as §1

[15] = tested on: FMOC09 (patient-derived high-grade serous ovarian cancer cells); conditions: 72 h; library: FO5A; assay format: 2D, 384-well, CellTiter-Glo
In short: as §1

[16] = tested on: FMOC25_1 (patient-derived low-grade serous ovarian cancer cells); conditions: 72 h; library: FO4B; assay format: 2D, 384-well, CellTiter-Glo
In short: as §1

Structure (SMILES)	drug sensitivity score [1]	drug sensitivity score [2]	drug sensitivity score [3]	drug sensitivity score [4]	drug sensitivity score [5]	drug sensitivity score [6]	drug sensitivity score [7]	drug sensitivity score [8]	drug sensitivity score [9]	drug sensitivity score [10]	drug sensitivity score [11]	drug sensitivity score [12]	drug sensitivity score [13]	drug sensitivity score [14]	drug sensitivity score [15]	drug sensitivity score [16]
COCC1(CO)C(=O)C2CCN1CC2 (centres undefined) [APR-246]	0	0	0	0	0	0	0.05	0	0	0	0	0	0	0	0	0
Cc1cc(C)c(CNC(=O)c2cc(-c3ccc(CN4CCOCC4)cc3)cc3c2cnn3C2CCCC2)c(=O)[nH]1 [EPZ-5687]	0.6	0.9	0	0.6	3.1	0.05	1.7	5.1	1.8	0.1	0	1.5	0.4	0	0	0
COc1ccc(CCc2nc3cc(-c4c(C)noc4C)ccc3n2C[C@H](C)N2CCOCC2)cc1Cl [SGC-CBP30]	2.9	3.3	4.6	2.8	3.1	1.3	5.6	2.4	6.1	1.4	4.6	2	4.5	1	2.5	0.8
Nc1nc(NC2CC2)cc(-c2cccc(Cl)c2Cl)n1 [TH588]	2.3	5.2	2.2	0.4	2.3	1.15	0.2	5.7	2.2	3	0	5.4	3.4	0.2	1.2	2.1
Nc1nccc(-c2c(-c3ccc(F)cc3)ncn2C2CCCCC2)n1	0.4	3.4	2.5	1.6	1	0.05	0.85	6.9	1.8	1.6	0.1	1.1	4.9	0.2	0	1.7
C[C@]1(O)C[C@@H](c2nc(-c3ccc4ccc(-c5ccccc5)nc4c3)c3c(N)nccn32)C1 [Linsitinib]	0	2.7	0.1	0.1	0	2.5	2.1	4.9	5.8	0.6	0.8	6.9	1.2	0	0.1	3.7
Cc1nc(NC(=O)N2CCC[C@H]2C(N)=O)sc1-c1ccnc(C(C)(C)C(F)(F)F)c1 [Alpelisib]	0.7	5.7	1.4	2.3	0.2	0.9	0.35	5.9	4.8	1.9	4.1	6.5	5.3	0	4.3	4.7
COc1ccc(Cn2ccc3ccc(C(=O)NO)cc32)cc1	0.4	3.4	0.6	1.1	0.2	0	0.4	4.9	2.5	1.4	0.2	1.8	1	1.1	1.1	0.8
Cc1cnc(-c2ccccc2C(C)C)nc1NCc1ccc(-n2ccnn2)cc1 [ML323]	0.3	3.1	0	0.9	0.6	0	0.8	0.9	1.7	0	0	0.2	0.1	0	0	0.6
COc1cc2c(Oc3ccc(NC(=O)C4(C(=O)Nc5ccc(F)cc5)CC4)cc3F)ccnc2cc1OCCCN1CCOCC1 [Foretinib]	0.5	1.9	0.8	0	2.2	1.1	1.35	0	2.4	1.7	3.1	3.2	2.6	0.6	1.1	0.6
O=C(CCCCCCNC(=O)c1cnc(N(c2ccccc2)c2ccccc2)nc1)NO [Rocilinostat]	4.3	3	4.3	5.1	4.8	3.2	5.4	0.9	6.7	0.7	3.5	5.2	4.9	4.5	0.8	2.4
CC(=O)O[C@]1(C(C)=O)CC[C@H]2[C@@H]3C=C(C)C4=CC(=O)CC[C@]4(C)[C@H]3CC[C@@]21C [Megestrol acetate]	0	0	0	0.2	4.6	0	0	1	0	0	0.4	0	0.3	0	0	0
Cc1c(Cn2c(C)nc3c(C(=O)O)cc(N4CCOCC4)cc32)cccc1C(F)(F)F	0	6.3	0	0.5	0.1	0.65	3	7.2	11.4	0	0.6	2.2	0	2.5	0	3.5
CC[C@H](C)C(=O)O[C@H]1C[C@H](O)C=C2C=C[C@H](C)[C@H](CC[C@@H](O)C[C@@H](O)CC(=O)O)[C@H]21 [Pravastatin]	0	0	0	0	0	0	0.35	0	0	0	0.8	0	0	0	0	0
COc1cc(CCc2cc(NC(=O)c3ccc(N4CC(C)NC(C)C4)cc3)n[nH]2)cc(OC)c1 (centres undefined) [AZD4547]	0	0	0	0	0	0	0	0	0	0	0	0	0	0	0	0
CC(C)(C)c1cc(NC(=O)Nc2ccc(-c3cn4c(n3)sc3cc(OCCN5CCOCC5)ccc34)cc2)no1 [Quizartinib]	0	0.7	0	0.8	0.5	0.45	3.85	0.3	0.6	1	0.3	0.6	2	0	0	0.7
CC/C(=C(\c1ccccc1)c1ccc(OCCN(C)C)cc1)c1ccccc1 [Tamoxifen]	3.2	3.8	3.9	4.3	3.1	3.75	7.35	2.6	2.4	3	5.2	4.8	6.5	4	1.6	2.3
CC(C)(C)Cn1c(N)nc2ccc(-c3[nH]c(C(C)(C)C)nc3-c3ccc(F)cc3)nc21 [Ralimetinib]	0.4	4.3	6.5	2.7	3.2	1.05	1.95	1.1	3.4	4.4	3.1	3.4	6.6	2.2	1.9	1.1
CC[C@H](Nc1ncnc2[nH]cnc12)c1nc2cccc(F)c2c(=O)n1-c1ccccc1 [Idelalisib]	0.1	2.4	1.9	0.4	0.4	0.1	0	3.3	1.1	2.8	2.7	3.7	2.3	0	2	1.4
COc1cc2nccc(Oc3ccc(NC(=O)Nc4cc(C)on4)c(Cl)c3)c2cc1OC [Tivozanib]	1.2	3	1.9	2.2	1.5	0.3	0.9	0.5	3.2	2.8	2.3	3.3	5	0.5	0.4	1.9
C=CC(=O)Nc1cccc(Nc2nc(Nc3ccc(OCCOC)cc3)ncc2F)c1 [Spebrutinib]	0	2.9	0.9	0	2.2	0	0	1.6	2.9	2.3	0	5.7	3.1	0	1.5	0
Cn1cnc2c(F)c(Nc3ccc(Br)cc3F)c(C(=O)NOCCO)cc21 [Binimetinib]	3.6	7.1	0	4.8	2.2	0	0	1.6	3.2	6	7.6	7.1	5.5	0	4.2	6.6
Cc1ccc(C(=O)Nc2ccc(Oc3cc4cnn(C)c4cc3-c3cn[nH]c3)c(F)c2)c(=O)n1-c1ccc(F)cc1 [Merestinib]	0	1.9	0	1.3	0	0	1.15	1.4	4	0.3	1.1	4.4	1.1	0	1.6	2.7
COC(=O)c1ccc2c(c1)[nH]c1ncnc(NCCCN3CCCCC3)c12 [UM729]	0	3.5	1.1	0	0.5	0.1	0.6	3.1	1.8	0.2	0	2.2	4.7	0.1	0	0
